Test results published in ChEMBL document CHEMBL1140755, “Interaction of aliphatic cap group in inhibition of histone deacetylases by cyclic tetrapeptides” (Bioorg Med Chem, 2008).
Non-standard residues stand in square brackets, D forms with d. Residues, ends and D or L forms follow the SMILES beside them. Ahp(7-SS(2-pyridyl)) = N[C@@H](CCCCCSSc1ccccn1)C(=O)O; Aib = CC(C)(N)C(=O)O

Assays:
Histone deacetylase 1 = Histone deacetylase 1 (Homo sapiens, UniProt Q13547); experiment: Inhibition of HDAC1 expressed in 293T cells; format: cell-based
Chain of Histone deacetylase 1 (Q13547 whole entry): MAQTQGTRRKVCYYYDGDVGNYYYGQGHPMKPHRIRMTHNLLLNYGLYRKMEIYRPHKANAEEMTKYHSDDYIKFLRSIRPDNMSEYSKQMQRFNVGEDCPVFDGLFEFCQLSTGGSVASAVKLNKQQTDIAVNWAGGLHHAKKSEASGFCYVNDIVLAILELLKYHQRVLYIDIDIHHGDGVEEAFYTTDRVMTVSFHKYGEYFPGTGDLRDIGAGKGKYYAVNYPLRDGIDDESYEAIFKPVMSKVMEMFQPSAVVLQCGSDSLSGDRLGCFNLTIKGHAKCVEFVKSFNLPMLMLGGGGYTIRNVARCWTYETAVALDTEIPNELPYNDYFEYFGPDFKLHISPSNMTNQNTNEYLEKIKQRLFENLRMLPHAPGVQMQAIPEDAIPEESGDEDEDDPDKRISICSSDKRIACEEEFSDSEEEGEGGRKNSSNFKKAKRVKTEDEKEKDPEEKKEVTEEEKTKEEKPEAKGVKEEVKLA

Histone deacetylase 4 = Histone deacetylase 4 (Homo sapiens, UniProt P56524); experiment: Inhibition of HDAC4 expressed in 293T cells; format: cell-based
Chain of Histone deacetylase 4 (P56524 whole entry): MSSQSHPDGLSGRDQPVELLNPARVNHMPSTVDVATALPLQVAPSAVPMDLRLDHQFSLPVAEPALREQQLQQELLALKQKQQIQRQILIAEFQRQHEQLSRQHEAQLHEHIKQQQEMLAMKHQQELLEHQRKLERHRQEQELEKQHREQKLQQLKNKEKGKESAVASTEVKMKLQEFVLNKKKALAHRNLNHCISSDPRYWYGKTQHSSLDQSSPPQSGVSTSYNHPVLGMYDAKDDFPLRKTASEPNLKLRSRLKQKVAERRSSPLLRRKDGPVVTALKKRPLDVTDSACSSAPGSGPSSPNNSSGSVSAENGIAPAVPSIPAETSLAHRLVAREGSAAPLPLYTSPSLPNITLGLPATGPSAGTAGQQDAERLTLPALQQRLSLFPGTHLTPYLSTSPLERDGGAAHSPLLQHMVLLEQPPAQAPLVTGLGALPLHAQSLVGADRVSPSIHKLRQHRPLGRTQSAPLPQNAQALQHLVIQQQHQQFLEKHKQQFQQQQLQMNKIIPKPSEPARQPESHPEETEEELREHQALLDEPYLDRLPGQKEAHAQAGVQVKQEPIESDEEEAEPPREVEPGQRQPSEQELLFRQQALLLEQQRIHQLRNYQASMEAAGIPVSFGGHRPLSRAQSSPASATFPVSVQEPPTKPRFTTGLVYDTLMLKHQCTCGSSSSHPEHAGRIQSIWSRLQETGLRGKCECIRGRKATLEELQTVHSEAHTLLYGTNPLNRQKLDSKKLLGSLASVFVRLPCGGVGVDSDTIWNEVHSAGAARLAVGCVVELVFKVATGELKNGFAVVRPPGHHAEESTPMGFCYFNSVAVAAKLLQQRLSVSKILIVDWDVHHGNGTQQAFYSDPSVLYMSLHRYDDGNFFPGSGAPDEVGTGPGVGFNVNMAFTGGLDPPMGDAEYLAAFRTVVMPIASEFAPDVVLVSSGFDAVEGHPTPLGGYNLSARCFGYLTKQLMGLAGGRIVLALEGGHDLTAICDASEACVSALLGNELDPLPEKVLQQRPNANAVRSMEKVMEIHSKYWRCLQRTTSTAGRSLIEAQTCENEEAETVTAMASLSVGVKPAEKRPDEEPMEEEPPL

[1] = Selectivity of IC50 for HDAC6 to IC50 for HDAC1
[2] = target: T1, Protein deacetylase HDAC6 (Homo sapiens, UniProt Q9UBN7); experiment: Inhibition of HDAC6 expressed in 293T cells; format: cell-based
T1 sequence (Q9UBN7 whole entry): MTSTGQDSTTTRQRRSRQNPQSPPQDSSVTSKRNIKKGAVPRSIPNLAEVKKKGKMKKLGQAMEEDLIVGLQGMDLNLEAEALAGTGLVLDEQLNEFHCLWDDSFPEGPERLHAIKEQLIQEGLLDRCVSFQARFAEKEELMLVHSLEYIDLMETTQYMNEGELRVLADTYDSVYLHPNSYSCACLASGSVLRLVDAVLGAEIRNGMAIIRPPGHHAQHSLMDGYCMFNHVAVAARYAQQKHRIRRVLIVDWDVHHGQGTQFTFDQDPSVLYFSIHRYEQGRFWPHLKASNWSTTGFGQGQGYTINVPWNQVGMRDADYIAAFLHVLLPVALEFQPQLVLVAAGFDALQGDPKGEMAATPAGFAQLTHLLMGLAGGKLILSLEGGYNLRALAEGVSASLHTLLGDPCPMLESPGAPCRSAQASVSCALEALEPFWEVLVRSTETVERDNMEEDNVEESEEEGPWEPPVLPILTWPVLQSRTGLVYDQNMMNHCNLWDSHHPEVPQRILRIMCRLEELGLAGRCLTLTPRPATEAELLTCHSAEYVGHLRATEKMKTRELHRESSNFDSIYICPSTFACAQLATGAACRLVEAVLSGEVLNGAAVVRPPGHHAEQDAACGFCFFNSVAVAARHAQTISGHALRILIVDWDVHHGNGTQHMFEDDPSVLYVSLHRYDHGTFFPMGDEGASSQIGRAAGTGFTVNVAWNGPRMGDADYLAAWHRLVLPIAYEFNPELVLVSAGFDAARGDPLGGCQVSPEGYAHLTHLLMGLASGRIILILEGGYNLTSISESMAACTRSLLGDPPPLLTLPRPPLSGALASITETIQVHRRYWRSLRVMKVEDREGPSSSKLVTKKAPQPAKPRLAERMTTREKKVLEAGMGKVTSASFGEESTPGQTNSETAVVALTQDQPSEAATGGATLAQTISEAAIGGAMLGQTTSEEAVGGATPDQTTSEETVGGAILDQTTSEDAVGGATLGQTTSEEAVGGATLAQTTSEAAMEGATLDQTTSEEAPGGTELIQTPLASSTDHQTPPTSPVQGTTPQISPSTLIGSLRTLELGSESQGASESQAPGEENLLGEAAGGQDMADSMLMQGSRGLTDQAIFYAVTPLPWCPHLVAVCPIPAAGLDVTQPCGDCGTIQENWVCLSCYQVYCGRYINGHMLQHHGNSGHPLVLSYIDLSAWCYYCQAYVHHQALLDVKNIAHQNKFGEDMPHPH

| Structure (SMILES) | IC50 (Histone deacetylase 1) [nM] | IC50 (Histone deacetylase 4) [nM] | Ratio IC50 [1] | IC50 [2] [nM] |
| --- | --- | --- | --- | --- |
| C[C@@H]1NC(=O)C(C)(C)NC(=O)[C@H](CCCCCSSc2ccccn2)NC(=O)[C@H]2CCCN2C1=O (cyclo(A[dP][Ahp(7-SS(2-pyridyl))][Aib])) | 94 | 52 | – | 430 |
| CC1(C)NC(=O)[C@H](CCCCCSSc2ccccn2)NC(=O)[C@H]2CCCN2C(=O)[C@H](Cc2ccccc2)NC1=O (cyclo([Aib]F[dP][Ahp(7-SS(2-pyridyl))])) | 39 | 18 | 10.3 | 404 |
| CC(C)C[C@@H]1NC(=O)C(C)(C)NC(=O)[C@H](CCCCCSSc2ccccn2)NC(=O)[C@H]2CCCN2C1=O | 58 | 33 | – | 230 |

The remaining compounds from weak to strong by IC50 (Histone deacetylase 1), led by results:

| IC50 (Histone deacetylase 1) [nM] | IC50 (Histone deacetylase 4) [nM] | Ratio IC50 [1] | IC50 [2] [nM] | Structure (SMILES) |
| --- | --- | --- | --- | --- |
| 38 | 23 | – | 310 | CC[C@H](C)[C@@H]1NC(=O)C(C)(C)NC(=O)[C@H](CCCCCSSc2ccccn2)NC(=O)[C@H]2CCCN2C1=O |
| 38 | 24 | – | 280 | CCCC[C@@H]1NC(=O)C(C)(C)NC(=O)[C@H](CCCCCSSc2ccccn2)NC(=O)[C@H]2CCCN2C1=O |
| 35 | 20 | 140 | 4900 | O=C1N[C@@H]2CCCCCCCCCCCC[C@H](NC2=O)C(=O)N2CCC[C@@H]2C(=O)N[C@H]1CCCCCSSc1ccccn1 |
